Reference: patent US5420339A, “Alpha-aryl or heteroaryl-substituted amide ester ACAT inhibitors” (Warner-Lambert Company, priority 1993, dated 1995)

Columns and labels:
[1] = in vivo adrenal toxicity screen in guinea pigs (Dominick et al.); set-up: species or system male guinea pigs of the Hartley strain; conditions: 100 mg/kg daily gavage, 2 weeks; for toxicity class to the adrenal gland: oleic acid vehicle
Procedure: Male guinea pigs of the Hartley strain (450-500 g) were obtained from Charles River and randomly divided into treatment groups. They were fed standard guinea pig chow ad libitum and dosed daily (AM) by gavage (100 mg/kg). The test compounds were dissolved or suspended in an oleic acid vehicle to facilitate absorption. After 2 weeks the animals were sacrificed by CO2 asphyxiation in the nonfasted state 16 hours after the last dose. Adrenal glands were weighed, fixed in 10% formalin, processed by routine paraffin techniques, sectioned, and then stained with hematoxylin and eosin for light microscopy. Toxicity was defined by the incidence, severity, and complexity of adrenal histopathologic alterations in the zona fasciculata (e.g., adrenal cortical atrophy, increased coarse vacuolation, single-cell necrosis, inflammatory cell infiltrates, mineralization/ectopic bone formation, and increased cytoplasmic eosinophilia).

[2] = APCC in vivo screen: blood cholesterol in rats on PCC diet with cholic acid; set-up: species or system male Sprague-Dawley rats; conditions: single dosing at 4 PM, PCC diet overnight with 1% or 0.5% cholic acid, sacrificed 8 AM
Procedure: The compounds were also evaluated in an in vivo screen designated APCC whereby male Sprague-Dawley rats (200 to 225 g) were randomly divided into treatment groups and dosed at 4 PM with either vehicle (CMC/Tween) or suspensions of compounds in vehicle. The normal chow diet was then replaced with the PCC diet with either 1% or 0.5% cholic acid. The rats consumed this diet ad libitum during the night and were sacrificed at 8 AM to obtain blood samples for cholesterol analysis using standard procedures. Statistical differences between mean cholesterol values for the same vehicle were determined using analysis of variance followed by Fisher-s least significant test.
The data appear in Table II where they are expressed as % change.

Row | SMILES | APCC % Change TC [2] [%] | also measured
1 | CCCCCCCCCCCCC(C)OC(=O)CC(=O)Nc1c(C(C)C)cccc1C(C)C (racemic) [(±)3-[[2,6-bis(1-methylethyl)phenyl]amino]-3-oxo-propanoic acid, 1-methyltridecyl ester] | – | atrophy of the zona reticularis (incidence) [1]: two of six; cytotoxic zonal atrophy of the zona fasciculata (incidence) [1]: six of six; increased coarse vacuoles (incidence) [1]: two of six; inflammatory cell infiltrates (incidence) [1]: four of six; necrosis of the adrenal cortex (incidence) [1]: four of six; toxicity class to the adrenal gland [1]: highly toxic to the adrenal gland
2 | CCCCCCCCCCCCC(C)OC(=O)C(C(=O)Nc1c(C(C)C)cccc1C(C)C)c1ccccc1 (racemic) [Example 1, (±)-Benzeneacetic acid, α-[[[2,6-bis(1-methylethyl)phenyl]amino]carbonyl]-, 1-methyltridecylester] | -61 | increased coarse vacuoles (incidence) [1]: one of six; toxicity class to the adrenal gland [1]: nontoxic to the adrenal gland
3 | CCCCCCCCCCCCOC(=O)C(C(=O)Nc1c(C(C)C)cccc1C(C)C)c1ccccc1 (racemic) [Example 3, (±)-Benzeneacetic acid, α-[[[2,6-bis(1-methylethyl)phenyl]amino]carbonyl]-, dodecyl ester] | -63 | increased coarse vacuoles (incidence) [1]: five of six; toxicity class to the adrenal gland [1]: nontoxic to the adrenal gland
4 | CCCCCCCCCCC(C)OC(=O)C(C(=O)Nc1c(C(C)C)cccc1C(C)C)c1ccccc1 (racemic) [Example 4, (±)-Benzeneacetic acid, α-[[[2,6-bis(1-methylethyl)phenyl]amino]carbonyl]-, 1-methylundecyl ester] | -37 | –
5 | CCCCCCCCCCCCCCOC(=O)C(C(=O)Nc1c(C(C)C)cccc1C(C)C)c1ccccc1 (racemic) [Example 5, (±)-Benzeneacetic acid, α-[[[2,6-bis(1-methylethyl)phenyl]amino]carbonyl]-, tetradecyl ester] | -49 | –
6 | CCCCCCCCCCOC(=O)C(C(=O)Nc1c(C(C)C)cccc1C(C)C)c1ccccc1 (racemic) [Example 6, (±)-Benzeneacetic acid, α-[[[2,6-bis(1-methylethyl)phenyl]amino]carbonyl]-, decyl ester] | -58 | –
7 | CCCCCC(C)OC(=O)C(C(=O)Nc1c(C(C)C)cccc1C(C)C)c1ccccc1 (racemic) [Example 7, (±)-Benzeneacetic acid, α-[[[2,6-bis(1-methylethyl)phenyl]amino]carbonyl]-, 1-methylhexyl ester] | -67 | –
8 | CCCCCCCOC(=O)C(C(=O)Nc1c(C(C)C)cccc1C(C)C)c1ccccc1 (racemic) [Example 8, (±)-Benzeneacetic acid, α-[[[2,6-bis(1-methylethyl)phenyl]amino]carbonyl]-, heptyl ester] | -71 | –
9 | CCCOC(=O)C(C(=O)Nc1c(C(C)C)cccc1C(C)C)c1ccccc1 (racemic) [Example 9, (±)-Benzeneacetic acid, α-[[[2,6-bis(1-methylethyl)phenyl]amino]carbonyl]-, propyl ester] | -20 | –
10 | CCCCCCCCOC(=O)C(C(=O)Nc1c(C(C)C)cccc1C(C)C)c1ccccc1 (racemic) [Example 10, (±)-Benzeneacetic acid, α-[[[2,6-bis(1-methylethyl)phenyl]amino]carbonyl]-, octyl ester] | -56 | –
11 | CCCCCCCCCOC(=O)C(C(=O)Nc1c(C(C)C)cccc1C(C)C)c1ccccc1 (racemic) [Example 11, (±)-Benzeneacetic acid, α-[[[2,6-bis(1-methylethyl)phenyl]amino]carbonyl]-, nonyl ester] | -67 | –
12 | CCCCCCCCCCCCC(C)(C)OC(=O)C(C(=O)Nc1c(C(C)C)cccc1C(C)C)c1ccccc1 (racemic) [Example 12, (±)-Benzeneacetic acid, α-[[[2,6-bis(1-methylethyl)phenyl]amino]carbonyl]-, 1,1-dimethyltridecyl ester] | -26 | –
13 | CCCCCCCCCCCCCCCCOC(=O)C(C(=O)Nc1c(C(C)C)cccc1C(C)C)c1ccccc1 (racemic) [Example 13, (±)-Benzeneacetic acid, α-[[[2,6-bis(1-methylethyl)phenyl]amino]carbonyl]-, hexadecyl ester] | -26 | –
14 | CCCCCCCCCCCCCCCCCCOC(=O)C(C(=O)Nc1c(C(C)C)cccc1C(C)C)c1ccccc1 (racemic) [Example 14, (±)-Benzeneacetic acid, α-[[[2,6-bis(1-methylethyl)phenyl]amino]carbonyl]-, octadecyl ester] | -25 | –
15 | CCCCC(C)(C)OC(=O)C(C(=O)Nc1c(C(C)C)cccc1C(C)C)c1ccccc1 (racemic) [Example 15, (±)-Benzeneacetic acid, α-[[[2,6-bis(1-methylethyl)phenyl]amino]carbonyl]-, 1,1-dimethylpentyl ester] | -72 | –
16 | CCCCCCCCCCCCCCC(C)OC(=O)C(C(=O)Nc1c(C(C)C)cccc1C(C)C)c1ccccc1 (racemic) [Example 16, (±)-Benzeneacetic acid, α-[[[2,6-bis(1-methylethyl)phenyl]amino]carbonyl]-, 1-methylpentadecyl ester] | -37 | –
17 | CCCCCCCCCCCCC(C)OC(=O)C(C(=O)Nc1c(OC)cc(OC)cc1OC)c1ccccc1 (racemic) [Example 17, (±)-Benzeneacetic acid, α-[[(2,4,6-trimethoxyphenyl)amino]carbonyl]-, 1-methyltridecyl ester] | -59 | –
18 | CCCCCCCCCCCCOC(=O)C(C(=O)Nc1c(OC)cc(OC)cc1OC)c1ccccc1 (racemic) [Example 18, (±) -Benzeneacetic acid, α-[[(2,4,6-trimethoxyphenyl)amino]carbonyl]-, dodecyl ester] | -51 | –
19 | CCCCCCCCCCCCOC(=O)C(C(=O)Nc1c(C(C)C)cccc1C(C)C)c1ccccn1 (racemic) [Example 19, (±)-2-pyridineacetic acid, α-[[[2,6-bis(1-methylethyl)phenyl]amino]carbonyl]-, dodecyl ester] | -43 | –
